Test results reported in patent US20030027141A1, “Combinatorial oligonucleotide PCR: a method for rapid, global expression analysis” (Board of Regents, The University of Texas System, priority 1999, published 2003).

What was measured:
[1] = tested on: HME87 line of normal human mammary epithelial cells; settings: 30 min BPDE treatment; for at least 48 h
[2] = tested on: HME87 line of normal human mammary epithelial cells; assay: COP analysis of gene expression after carcinogen (BPDE) treatment; format: cell-based
[3] = tested on: HME87 line of normal human mammary epithelial cells; assay: DNA damage in BPDE-treated cells; format: cell-based; settings: 30 min BPDE treatment
Procedure: Control cultures were treated with tetrahydrofuran only.

[4] = tested on: HME87 line of normal human mammary epithelial cells; assay: Cell cycle parameters after BPDE treatment; format: cell-based
Procedure: Data for several genes whose expression did change at one or more time points is listed in Table 11 with two prominent examples shown in FIG. 20. The most dramatic change was in the expression of the transcription factor ATF3, which increased 8-9 fold at 4 and 10 h, then dropped to a 2.4-fold increase at 24 h. Changes in ATF3 expression in response to damage induced by BPDE or related compounds have not previously been described, and it will be very interesting to determine both the mechanism and the consequences of this induction. The p21/WAF1 gene, a downstream target of p53, is a mediator of G1 arrest in response to DNA damage (Levine, 1997). […] Thus, the COP analyses performed in this system have given a variety of clues concerning mechanisms operative in cells soon after BPDE treatment.

[5] = at one or more time points after BPDE treatment

Q: Which results are given for `OC1c2cc3ccc4cccc5ccc(c2C2OC2C1O)c3c45` (racemic) [BPDE, ±7r,8t-dihydroxy-9,10t-epoxy-7,8,9,10-tetrahydro-benzo[a]pyrene]?
A: toxicity of treatment [1]: not demonstrably toxic; ACTB expression E/C ([2]; 4 h after BPDE treatment): 1.1 ± 0.2; ATF3 expression E/C ([2]; 4 h after BPDE treatment): 7.8 ± 4.0; Beclin expression E/C ([2]; 4 h after BPDE treatment): 2.1 ± 1.4; CEBPE expression E/C ([2]; 4 h after BPDE treatment): 0.9 ± 0.3; GADD45 expression E/C ([2]; 4 h after BPDE treatment): 2.1 ± 0.7; LMNA expression E/C ([2]; 4 h after BPDE treatment): 0.7 ± 0.2; RPL23a expression E/C ([2]; 4 h after BPDE treatment): 0.6 ± 0.1; RPL30 expression E/C ([2]; 4 h after BPDE treatment): 0.8 ± 0.1; RPL35 expression E/C ([2]; 4 h after BPDE treatment): 1.2 ± 0.3; RPP1 expression E/C ([2]; 4 h after BPDE treatment): 1.4 ± 0.1; RPS7 expression E/C ([2]; 4 h after BPDE treatment): 1.1 ± 0.2; RPS15a expression E/C ([2]; 4 h after BPDE treatment): 1.0 ± 0.3; RPS26 expression E/C ([2]; 4 h after BPDE treatment): 1.2 ± 0.3; RPS29 expression E/C ([2]; 4 h after BPDE treatment): 1.1 ± 0.2; TP53 expression E/C ([2]; 4 h after BPDE treatment): 1.1 ± 0.4; p21 expression E/C ([2]; 4 h after BPDE treatment): 1.0 ± 0.1; RPS27 expression E/C ([2]; 4 h after BPDE treatment, E=BPDE, C=solvent only): 0.9 ± 0.3; ACTB expression E/C ([2]; 10 h after BPDE treatment): 0.9 ± 0.2; ATF3 expression E/C ([2]; 10 h after BPDE treatment): 9.2 ± 3.9; BTF3 expression E/C ([2]; 10 h after BPDE treatment): 1.0 ± 0.2; Beclin expression E/C ([2]; 10 h after BPDE treatment): 2.0 ± 1.1; GADD45 expression E/C ([2]; 10 h after BPDE treatment): 1.9 ± 0.7; LMNA expression E/C ([2]; 10 h after BPDE treatment): 1.1 ± 0.3; PGK expression E/C ([2]; 10 h after BPDE treatment): 1.0 ± 0.2; RPL23a expression E/C ([2]; 10 h after BPDE treatment): 1.1 ± 0.3; RPL30 expression E/C ([2]; 10 h after BPDE treatment): 1.0 ± 0.1; RPL35 expression E/C ([2]; 10 h after BPDE treatment): 1.1 ± 0.4; RPP1 expression E/C ([2]; 10 h after BPDE treatment): 1.0 ± 0.4; RPS7 expression E/C ([2]; 10 h after BPDE treatment): 1.4 ± 0.5; RPS15a expression E/C ([2]; 10 h after BPDE treatment): 1.4 ± 0.6; RPS16 expression E/C ([2]; 10 h after BPDE treatment): 0.8 ± 0.1; RPS26 expression E/C ([2]; 10 h after BPDE treatment): 1.3 ± 0.5; RPS27 expression E/C ([2]; 10 h after BPDE treatment): 1.2 ± 0.4; RPS29 expression E/C ([2]; 10 h after BPDE treatment): 1.3 ± 0.6; TP53 expression E/C ([2]; 10 h after BPDE treatment): 0.9 ± 0.1; p21 expression E/C ([2]; 10 h after BPDE treatment): 1.1 ± 0.2; ACTB expression E/C ([2]; 24 h after BPDE treatment): 1.3 ± 0.4; ATF3 expression E/C ([2]; 24 h after BPDE treatment): 2.4 ± 0.7; BTF3 expression E/C ([2]; 24 h after BPDE treatment): 0.9 ± 0.2; CEBPE expression E/C ([2]; 24 h after BPDE treatment): 1.0 ± 0.3; GADD45 expression E/C ([2]; 24 h after BPDE treatment): 0.8 ± 0.4; IMPD expression E/C ([2]; 24 h after BPDE treatment): 0.8 ± 0.2; LMNA expression E/C ([2]; 24 h after BPDE treatment): 0.9 ± 0.3; MYC expression E/C ([2]; 24 h after BPDE treatment): 1.2 ± 0.5; NFKB expression E/C ([2]; 24 h after BPDE treatment): 1.5 ± 0.4; PGK expression E/C ([2]; 24 h after BPDE treatment): 1.1 ± 0.2; RPL23a expression E/C ([2]; 24 h after BPDE treatment): 1.0 ± 0.2; RPL30 expression E/C ([2]; 24 h after BPDE treatment): 1.0 ± 0.2; RPL35 expression E/C ([2]; 24 h after BPDE treatment): 1.2 ± 0.6; RPP1 expression E/C ([2]; 24 h after BPDE treatment): 1.7 ± 1.0; RPS7 expression E/C ([2]; 24 h after BPDE treatment): 1.7 ± 0.8; RPS15a expression E/C ([2]; 24 h after BPDE treatment): 1.2 ± 0.3; RPS16 expression E/C ([2]; 24 h after BPDE treatment): 0.9 ± 0.2; RPS26 expression E/C ([2]; 24 h after BPDE treatment): 1.5 ± 0.6; RPS27 expression E/C ([2]; 24 h after BPDE treatment): 0.9 ± 0.2; RPS29 expression E/C ([2]; 24 h after BPDE treatment): 1.7 ± 1.2; SL1 expression E/C ([2]; 24 h after BPDE treatment): 1.0 ± 0.3; TP53 expression E/C ([2]; 24 h after BPDE treatment): 0.8 ± 0.3; p21 expression E/C ([2]; 24 h after BPDE treatment): 2.3 ± 0.7; increase in expression of transcription factor ATF3 ([2]; at 4 and 10 h after BPDE treatment): 8-9 fold; increase in expression of transcription factor ATF3 ([2]; at 24 h after BPDE treatment): 2.4 fold; increase of p21/WAF1 gene expression ([2]; at 24 h after BPDE treatment): about 2 fold; expression of beclin (protein related to apoptosis) [2, 5]: upregulated; expression of transcription factor CP2 [2, 5]: upregulated; induction of p21/WAF1 gene ([2]; early times after BPDE treatment): not induced; expression of the majority of over 450 genes analyzed ([2]; one or more time points after BPDE treatment): no significant changes in expression; DNA damage in the treated cells [3]: induces a high level of DNA damage; G1 arrest ([4]; 4 and 10 h after BPDE treatment): no G1 arrest; G1 arrest ([4]; by 24 h after BPDE treatment): appear to be a G1 arrest
